Results: the Deep4Chem optical property database
Each block holds one compound with its values, some of them ahead of it.

Experiment: photoluminescence quantum yield (fraction); solvent given as SMILES

SMILES: CC1=CC(C)=[N+]2C1=C(c1ccc(N3CCCCC3)cc1)c1c(C)cc(C)n1[B-]2(F)F
photoluminescence quantum yield (in C1CCOC1): 0.008
photoluminescence quantum yield (in CC#N): 0.005
photoluminescence quantum yield (in CC(=O)C(C)(C)C): 0.024
photoluminescence quantum yield (in CC(C)=O): 0.002
photoluminescence quantum yield (in CCCCCC): 0.384
photoluminescence quantum yield (in CCOC(C)=O): 0.006

photoluminescence quantum yield (in CC#N): 0.36
photoluminescence quantum yield (in CCCCCC): 0.289
photoluminescence quantum yield (in CO): 0.328
photoluminescence quantum yield (in ClC(Cl)Cl): 0.166
SMILES: c1ccc2cc(-c3cc(-c4nccs4)nc(-c4nccs4)c3)ccc2c1

SMILES: CN(C)c1ccc(-c2c(/C=C3/C=Cc4ccccc4N3Cc3ccccc3)c(=O)c2=O)cc1
photoluminescence quantum yield (in C1CCCCC1): 0.0146
photoluminescence quantum yield (in Cc1ccccc1): 0.0141
photoluminescence quantum yield (in ClCCl): 0.001

photoluminescence quantum yield (in C1COCCO1): 0.012
SMILES: O=C1NC(c2ccccc2)=C/C1=C\c1ccccc1

photoluminescence quantum yield (in ClCCl): 0.21
SMILES: CN(C)c1ccc(-c2cc(-c3ccc(C#N)cc3)nn2C)cc1

photoluminescence quantum yield (in C1CCCCC1): 0.39
photoluminescence quantum yield (in CC#N): 0.13
photoluminescence quantum yield (in ClCCl): 0.24
SMILES: O=S1(=O)c2ccc(-c3c4ccccc4cc4ccccc34)cc2-c2cc(-c3c4ccccc4cc4ccccc34)ccc21

photoluminescence quantum yield (in C1COCCO1): 0.14
photoluminescence quantum yield (in CC#N): 0.01
photoluminescence quantum yield (in ClCCl): 0.17
SMILES: CN(C)c1ccc(/C=C/c2nc3cc(Br)ccc3nc2-c2ccccc2)cc1

photoluminescence quantum yield (in ClCCl): 0.238
SMILES: C(S/C=C/c1ccc(-c2ccc(/C=C/SC=C3CCCCC3)cc2)cc1)=C1CCCCC1

photoluminescence quantum yield (in ClC(Cl)Cl): 0.612
SMILES: F[B-]1(F)OC(c2ccc(N3CCCCC3)cc2)=Cc2cccc[n+]21

photoluminescence quantum yield (in CO): 0.14
photoluminescence quantum yield (in CS(C)=O): 0.12
photoluminescence quantum yield (in O): 0.02
SMILES: CCCN1/C(=C/C=C(/C=C/C2=[N+](CCC)c3ccccc3C2(C)C)c2cc[n+](C)cc2)C(C)(C)c2ccccc21

photoluminescence quantum yield (in ClCCl): 0.0025
SMILES: CC(=O)c1c(N[C@@H](CS)C(=O)O)c2ccc(N(C)C)cc2oc1=O

photoluminescence quantum yield (in CC#N): 0.043
SMILES: Cc1cc(C)c2nc3[nH]c(=O)[nH]c(=O)c3nc2c1

photoluminescence quantum yield (in ClC(Cl)Cl): 0.02
SMILES: Cc1nc2c(ccc3c2sc(/C=C/c2ccc(N(C)C)cc2)[n+]3C)s1

photoluminescence quantum yield (in CC#N): 0.37
photoluminescence quantum yield (in CCOC(C)=O): 0.48
photoluminescence quantum yield (in CN(C)C=O): 0.31
photoluminescence quantum yield (in CS(C)=O): 0.34
photoluminescence quantum yield (in c1ccccc1): 0.5
SMILES: CCOC(=O)CN(CC(=O)OCC)c1ccc(-c2cc(-c3ccccn3)nc(-c3ccccn3)c2)cc1

photoluminescence quantum yield (in CC#N): 0.064
SMILES: COc1ccc(-n2nc(C#N)c(N3CCN(c4ccccn4)CC3)n2)cc1

photoluminescence quantum yield (in ClCCl): 0.36
SMILES: Cc1cccc(C)c1N1C(c2ccccc2)=Cc2cccc[n+]2[B-]1(F)F

photoluminescence quantum yield (in CC#N): 0.37
SMILES: N#CC(/N=C/c1c(O)ccc2ccccc12)=C(C#N)/N=C/c1c(O)ccc2ccccc12

photoluminescence quantum yield (in c1cc(-c2cccc(-n3c4ccccc4c4ccccc43)c2)cc(-n2c3ccccc3c3ccccc32)c1): 1
SMILES: Cc1cc(-c2nc(-c3ccccc3)nc(-c3ccccc3)n2)ccc1-c1ccc2c(c1)C1(c3ccccc3-c3ccccc31)c1ccccc1N2c1ccccc1

photoluminescence quantum yield (in C1CCCCC1): 0.12
SMILES: CCn1c2ccccc2c2ccc(C#N)cc21

photoluminescence quantum yield (in ClCCl): 0.45
SMILES: COCCOCCOCCOCC(COCCOCCOCCOC)Oc1cc(/C=C/c2ccc(/C=C(\C#N)c3ccncc3)cc2)c(OC(COCCOCCOCCOC)COCCOCCOCCOC)cc1/C=C/c1ccc(/C=C(\C#N)c2ccncc2)cc1

photoluminescence quantum yield (in ClC(Cl)Cl): 0.13
SMILES: CCn1c2ccccc2c2cc3c(cc21)c1ccccc1n3CC

photoluminescence quantum yield (in CN(C)C=O): 0.0179
SMILES: CCN(CC)c1ccc(-c2nc(Oc3ccc(-c4nc5ccc(Cl)cc5o4)cc3)nc(Oc3ccc(-c4nc5ccc(Cl)cc5o4)cc3)n2)cc1

photoluminescence quantum yield (in ClCCl): 0.07
SMILES: Oc1ccc2ccccc2c1-c1nc2c(c3c1-c1ccccc1CC3)-c1ccccc1CC2

photoluminescence quantum yield (in ClCCl): 0.35
SMILES: CCOCCOCCOC(=O)/C=C/C1=CC2=C(c3c(C)cc(C)cc3C)c3cccn3[B-](F)(F)[N+]2=C1

photoluminescence quantum yield (in C1CCCCC1): 0.34
photoluminescence quantum yield (in CC#N): 0.33
photoluminescence quantum yield (in CO): 0.31
photoluminescence quantum yield (in O): 0.39
SMILES: Nc1ccc2cn[nH]c2c1

photoluminescence quantum yield (in CC#N): 0.33
photoluminescence quantum yield (in CCCCCC): 0.411
photoluminescence quantum yield (in CO): 0.207
photoluminescence quantum yield (in ClC(Cl)Cl): 0.439
SMILES: c1ccc2c(-c3cc(-c4nccs4)nc(-c4nccs4)c3)cccc2c1

photoluminescence quantum yield (in CC#N): 0.38
SMILES: Cc1c2ccc3c(C)[n+](C)ccc3c2cc[n+]1C
